This note sets out measurements from patent US20190136188A1, “4HPR AND ITS USE IN THE CULTURING OF HEMATOPOIETIC STEM CELLS” (UNIVERSITY HEALTH NETWORK, priority 2016, published 2019).

One experiment deals with sorted HSC, MPP or GMP. As to the kind of experiment: Colony forming assay (CFC) in methylcellulose. Type of experiment: cell-based, human. Particulars: for cloning efficiency of the HSC / relative number of colonies relative to vehicle control: 35 nM UM171 or 0.5 uM SR1, 10 days. The method, then:
(A) Dose response of varying [4HPR] in CB at day 3 post-treatment showing 2 uM 4HPR gives the relative half maximal number of viable cells compared to control. All experiments following are at this 4HPR concentration unless otherwise indicated. […] (C) LC/MS was used to profile the ceramide (Cer), dihydroceramide (dhCer), sphingosine (sph), dihydrosphingosine (dhSph), S1P and dihydro-S1P (dhS1P) levels in lin− CB cells cultured for 8 days with control or 4HPR (n=2). […] (D) HSC, MPP, or GMP were sorted into methylcellulose for CFC assays in the presence of control or 4HPR and colonies were blindly scored following 10-11 days for (D) colonies/100 cells and ((E) colony distribution are shown (n=7). (F) Flow cytometry for erythroid (GlyA+) and monocytic (CD14+) markers in live cells from pooled CFC colonies were scored (n=6). (F) Relative number of colonies from CFC assays comparing the effect of 4HPR or ATRA (n=3) on sorted HSC, MPP or GMP. […]
(A) Representative flow cytometry analysis of the primitive hierarchy within the CD34+ fraction of day 8 cultured lin− CB cells after the indicated treatments for CD90 and CD45RA, n=4. B) The distribution of cultured CD34+CD90+CD45RA− (cHSC), CD34+CD90−CD45RA− (cMPP), and […] for the indicated conditions at day 8 of ex vivo culture following CD34 enrichment. Statistical significance assayed through unpaired t-test relative to vehicle control (Ctrl). The relative number of colonies resulting from (C) HSC or (D) MPP grown in methylcellulose CFC assays in the presence of vehicle control (−) or the indicated combination of 2 uM 4HPR, or 35 nM UM171 or 0.5 uM SR1 at 10 days. Statistical significance is calculated via unpaired t-test relative to ctrl (black) or to the presence of absence of 4HPR treatment for UM171 or SR1.
However, the functional consequence of 4HPR treatment on human cord blood primitive cells is unknown. A dose titration of 4HPR was performed on lineage-depleted CB (lin-CB) cells and 2 uM was calculated to give half maximal cell viability at 3 days post-treatment compared to vehicle control (ctrl), a concentration reported in cell lines to antagonize DEGS1 enzymatic function, and used for all subsequent experiments unless otherwise indicated (FIG. 1A). […] Next, we utilized the colony forming assay (CFC) for in vitro progenitor function to determine if 4HPR treatment alters functional output from isolated populations of CB HSPC. […] This is unsurprising as retinoic acid signaling is a potent differentiation signal in hematopoietic cells. Thus, 4HPR inhibition of sphingolipid homeostasis selectively enhances cloning efficiency in human HSC.
Given the CD34 compartment where functional HSC should reside following ex vivo expansion is critical to blood production, we asked if there were immunophenotypic alterations following 4HPR treatment. StemRegenin-1 (SR1) or UM171 are two molecules whose action on CB has been reported to expand CD34+ cells dramatically and lead to increase reconstitution in xenotransplantation (Fares, et al Science, 2014: Boitano, Science, 2010). We sought to ask if limiting CD34+ expansion with 4HPR treatment is synergistic with these known agonists of CB ex vivo expansion. Lin− CB were cultured with these 3 small molecules alone or in combination for 8 days and the CD34 compartment was isolated and analyzed by flow cytometry further with CD90 and CD45RA to look at immunophenotypic cultured HSC (cHSC), MPP (cMPP) and committed progenitors (cProg). These populations were sorted from lin-CB at […] following expansion and transplanted into NSG mice for 16 weeks to ascertain that cProg cells are committed progenitors, while cHSC and cMPP retain multipotency following culture (FIG. 8A, B). […]

The subject of another experiment is sorted HSC and MPP. As to the kind of experiment: 8 day ex vivo expansion of sorted HSC and MPP, CD34+ compartment by flow cytometry. Type of experiment: cell-based, human. The note with it: D8 after ex vivo expansion. An excerpt:
B) Lymphoid and C) myeloid engraftment from (A) at 16 weeks post-transplantion. […] F) Flow cytometry plots showing the CD34+ population from 8 day cultured HSC.
Given the CD34 compartment where functional HSC should reside following ex vivo expansion is critical to blood production, we asked if there were immunophenotypic alterations following 4HPR treatment. StemRegenin-1 (SR1) or UM171 are two molecules whose action on CB has been reported to expand CD34+ cells dramatically and lead to increase reconstitution in xenotransplantation (Fares, et al Science, 2014: Boitano, Science, 2010). We sought to ask if limiting CD34+ expansion with 4HPR treatment is synergistic with these known agonists of CB ex vivo expansion. Lin− CB were cultured with these 3 small molecules alone or in combination for 8 days and the CD34 compartment was isolated and analyzed by flow cytometry further with CD90 and CD45RA to look at immunophenotypic cultured HSC (cHSC), MPP (cMPP) and committed progenitors (cProg). […] To further elucidate the specific action of 4HPR on HSC over MPP and compare this to UM171 and SR1, sorted HSC and MPP were put into ex vivo expansion conditions for 8 days with the same treatments as in FIG. 7A, B and their growth and CD34+ compartment were monitored by flow cytometry (FIG. 8D-F). […]

Entries after “also recorded” stand apart in the source; their conditions may differ.

For the compound `CC1=C(/C=C/C(C)=C/C=C/C(C)=C/C(=O)O)C(C)(C)CCC1` [ATRA, all-trans retinoic acid], the colony output entry in the experiment with sorted HSC, MPP or GMP (ATRA treatment, HSC, MPP, GMP) is recorded as “decreases colony output from all HSPC populations”.

In the case of `CC(C)n1cnc2c(NCCc3ccc(O)cc3)nc(-c3csc4ccccc34)nc21` [SR1, StemRegenin-1], the “primitive CD34+ cells from sorted HSC and MPP” value in the experiment on sorted HSC and MPP is “promote CD34+ expansion more from MPP than HSC; also recorded: occurs primarily in sorted MPP, not HSC”. For the same compound, in the experiment with sorted HSC, MPP or GMP, the “cloning efficiency of the HSC” value was “both decreased cloning efficiency of the HSC” and the “relative number of colonies relative to vehicle control” value is given as “Neither UM171 nor SR1 altered relative number of colonies”.

Regarding `Cn1nnc(-c2ccc3c(c2)[nH]c2nc(Cc4ccccc4)nc(N[C@H]4CC[C@H](N)CC4)c23)n1` [UM171, (1r,4r)-N1-(2-benzyl-7-(2-methyl-2H-tetrazol-5-yl)-9H-pyrimido[4,5-b]indol-4-yl)cyclohexane-1,4-diamine], in the experiment on sorted HSC and MPP, the “primitive CD34+ cells from sorted HSC and MPP” value was “promote CD34+ expansion more from MPP than HSC; also recorded: dramatically increases primitive CD34+ from both HSC and MPP”. Further, in the experiment with sorted HSC, MPP or GMP, the “cloning efficiency of the HSC” value is “both decreased cloning efficiency of the HSC” and the “relative number of colonies relative to vehicle control” value is “Neither UM171 nor SR1 altered relative number of colonies”.
